From US11926599B1, “1-(2-chlorobenzylideneamino)-5,5-diphenylimidazolidine-2,4-dione as an antimicrobial compound” (KING FAISAL UNIVERSITY, priority 2023, dated 2024)

How the values were obtained:
Type in all cases: cell-based
Bacillus cereus = test: Agar plate disc-diffusion, antibacterial inhibition zone; settings: nutrient agar, 37° C., 48 hours, DMSO zone subtracted
Experimental: (§1) The agar plate disc-diffusion method was applied. […] The discs were then placed onto the surface of agar plates (nutrient agar for bacteria and Sabouraud's dextrose agar for fungi) seeded with the test organism. Each plate contained 15 mL of the agar medium, previously seeded with 0.2 mL of the broth culture of each organism pregrown for 18 hours. The plates were incubated at 37° C. for 48 hours, and 72 hours for fungi. The inhibition zones was measured in millimeter. Discs impregnated with DMSO were used as a control, and its inhibition zone was subtracted from the tested compound actual inhibition zone.
(§2) The results of the antimicrobial testing can be observed in Tables 1 and 2, below, with ciprofloxacin serving as a reference.

Pseudomonas aeruginosa = test: as above; settings: nutrient agar, 37° C., 48 hours, DMSO zone subtracted
Experimental: as §1, §2

Escherichia coli = test: as above; settings: nutrient agar, 37° C., 48 hours, DMSO zone subtracted
Experimental: as §1, §2

Staphylococcus aureus = test: as above; settings: nutrient agar, 37° C., 48 hours, DMSO zone subtracted
Experimental: as §1, §2

Aspergillus flavus = test: Agar plate disc-diffusion, antifungal inhibition zone; settings: Sabouraud's dextrose agar, 72 hours, DMSO zone subtracted
Experimental: as §1, §2

[1] = test system: Chrysosporium keratinophilum; test: as above; settings: Sabouraud's dextrose agar, 72 hours, DMSO zone subtracted
Experimental: as §1, §2

[2] = A = concentration of comp. = 10,000 μL
[3] = B = concentration of comp. = 30.000 μL
[4] = C = concentration of comp. = 50,000 μL

SMILES: O=C1NC(=O)C(c2ccccc2)(c2ccccc2)N1/N=C/c1ccccc1Cl [Compound 4, 1-(2-chlorobenzylideneamino)-5,5-diphenylimidazolidine-2,4-dione]
- inhibition zone, Bacillus Cereus, A (Bacillus cereus; [2]): 26 millimeter
- inhibition zone, Bacillus Cereus, B (Bacillus cereus; [3]): 29 millimeter
- inhibition zone, Bacillus Cereus, C (Bacillus cereus; [4]): 41 millimeter
- inhibition zone, Pseudomonas aeruginosa, A (Pseudomonas aeruginosa; [2]): 20 millimeter
- inhibition zone, Pseudomonas aeruginosa, B (Pseudomonas aeruginosa; [3]): 24 millimeter
- inhibition zone, Pseudomonas aeruginosa, C (Pseudomonas aeruginosa; [4]): 34 millimeter
- inhibition zone, Escherichia coli, A (Escherichia coli; [2]): 27 millimeter
- inhibition zone, Escherichia coli, B (Escherichia coli; [3]): 32 millimeter
- inhibition zone, Escherichia coli, C (Escherichia coli; [4]): 51 millimeter
- inhibition zone, Staphylococcus aureus, A (Staphylococcus aureus; [2]): 10 millimeter
- inhibition zone, Staphylococcus aureus, B (Staphylococcus aureus; [3]): 17 millimeter
- inhibition zone, Staphylococcus aureus, C (Staphylococcus aureus; [4]): 20 millimeter
- inhibition zone, Aspergillus flavus, A (Aspergillus flavus; [2]): 25 millimeter
- inhibition zone, Aspergillus flavus, B (Aspergillus flavus; [3]): 24 millimeter
- inhibition zone, Aspergillus flavus, C (Aspergillus flavus; [4]): 36 millimeter
- inhibition zone, Chrysosporium keratinophilum, A [1, 2]: 27 millimeter
- inhibition zone, Chrysosporium keratinophilum, B [1, 3]: 29 millimeter
- inhibition zone, Chrysosporium keratinophilum, C [1, 4]: 50 millimeter
